Results published in patent US7071227B2, “Antiviral compositions and methods of use” (The Johns Hopkins University, priority 2000, dated 2006).
Values after ≈ are worked out from the molar mass of the structure shown. Values joined by “and” are separate entries in the source; they are usually repeats but may differ in a detail not shown here. Equal entries are not always repeated. Where two headings read alike, the source gives them in different places.

Key:
[1] = system: HIV-1IIIBA17 and HIV-1L10R/M461/L63P/V82T/184V; test: HIV replication in infected H9 cells, HIV/p24 monoclonal antibody assay; format: cell-based; settings: Human immunodeficiency virus 1, H9, read-out: IC50 against HIV replication
Protocol: The following cells and virus strains were obtained from the AIDS Research and Reference Regent Program, Division of AIDS, National Institute of Allergy and Infectious Diseases: H9 cells, virus strains of HIV-1IIIBA17, a variant resistant to RT nonnucleotide inhibitors and HIV-1L10R/M461/L63P/V82T/184V, a protease inhibitor resistant virus, as well as viral strains HTLV-IIImn, HIV-1RTMF and HTLV-IIIB. Virus-infected H9 cells were cultured in the presence of different concentrations of M522 and M532 and viral replication was assayed using the HIV/p24 monoclonal antibody assay.
The inhibitory effect of M522 and M532 against HIV replication was further examined using HIV-1IIIBA17, a variant resistant to RT nonnucleotide inhibitors and HIV-1L10R/M461/L63P/V82T/184V, a protease inhibitor resistant virus, as testing viruses in the presence of a variety of drug concentrations in infected H9 cells.
FIG. 7A graphically illustrates the effect of M522 and M532 on HIV-1 replication. FIG. 7A illustrates the dose-dependent inhibition of HIV-1 replication in H9 cells infected with HIV-1IIIBA17 and HIV-1L10R/M461/L63P/V82T/184V viruses in the presence of different drug concentrations of M522 and M532.

HIV-1 integrase = HIV-1 integrase (Human immunodeficiency virus type 1 group M subtype B, UniProt P12497); test: HIV-1 integrase 3'-end processing assay; format: biochemical
Protocol: The HIV-1 integrase assay utilized in testing described below used a DNA substrate consisting of a DNA sequence derived from the U5 end of HIV-1 LTR. It was prepared by annealing oligonucleotide U5V1 (5′-[…]) with its complementary strand U5V2 (3′-[…]). The U5V1 strand was labeled at the 5′-end with [γ-^32P] ATP using T4 polynucleotide kinase as described previously (Kamata et al., 1994). The standard reaction mixture included reaction buffer (40 mM HEPES, pH 7.5, 20 mM MnCL2, 60 mM NaCl, 20 mM DTT and 0.1% Nonidet-P40) and HIV-1 integrase (NIH AIDS Research and Reference Reagent Program). To assay for 3′-end processing, the labeled substrate was incubated with the reaction mixture for 60 minutes at 37° C. An equal volume of stop solution (95% formamide, 30 mM EDTA, 0.1% xylene cyanol, 0.1% bromophenol blue) was added to each reaction and the samples were heated to 95°′ C. for 5 minutes to denature the DNA. The samples were then fractionated by electrophorsis on a 15% denaturing polyacrylamide gel. The 3′-end processing activity was monitored by the appearance of a radioactive oligonucleotides product (33 nt), shortened by two nucleotides from the original substrate (35 nt). The products were visualized by autoradiography and quantitation was carried out by phosphorimaging.

HIV-1IIIBA17 variant = test: HIV-1 replication in H9 cells, p24 antigen assay; format: cell-based; settings: for inhibition at 1.25 µg/mL / inhibition at 2.5 µg/mL / inhibition at 5 µg/mL / inhibition at 10 µg/mL / inhibition at 20 µg/mL / inhibition at 40 µg/mL / inhibition at 80 µg/mL: Human immunodeficiency virus 1, H9; for IC50: Human immunodeficiency virus 1, H9, 192 h, read-out: IC50, HIV-1 replication
Protocol: (§1) Inhibitory activity of M522 and M532 against the replication of four different HIV-1 strains was tested in this example. Two of the strains were drug-resistant virus isolates (HIV-1RTMF resistant against AZT and HIV-1IIIBA17 variant resistant against inhibition by RT nonnucleotide inhibitors) and the other two were primary isolates (HTLV-IIIMN and HTLV-IIIB).
(§2) On the day before infection, H9 cells were subcultured at 1–2×10^5 cells/ml and on the day of the infection, cells were pelleted by centrifugation at room temperature for 10 minutes. The pellet was then resuspended with 1 ml of each strain according to the virus titer. The mixtures were incubated at 37 ° C. in CO2 incubator for 2 hours. The cells were then washed two times with PBS and then two times with the culture medium (RPMI 1640). The cells were resuspended with fresh medium and plated in 96 well plates. Every 3–4 days after infection, cells were sub-cultured and supernatant was saved to assay for virus production.
(§3) The activity of M522 against the four strains were tested at various drug concentrations of 80, 40, 20, 10, 5, 2.5, 1.25, and 0 μg/ml. After 8 days, the infection of the cells was detected by using HIV-1 p24 antigen assay, which is an enzyme immunoassay (EIA, or enzyme-linked immunosorbent assay) developed for detection and quantitation of the HIV-1 p24 core protein.

HTLV-IIIMN = test: HIV-1 replication in H9 cells, p24 antigen assay; format: cell-based; settings: for IC50: Human immunodeficiency virus 1, 192 h, H9 cells, 8 days; for inhibition at 1.25 µg/mL: Human immunodeficiency virus 1, H9, 1.25 μg/ml; for inhibition at 2.5 µg/mL: Human immunodeficiency virus 1, H9, 2.5 μg/ml; for inhibition at 5 µg/mL: Human immunodeficiency virus 1, H9, 5.0 μg/ml; for inhibition at 10 µg/mL: Human immunodeficiency virus 1, H9, 10.0 μg/ml; for inhibition at 20 µg/mL: Human immunodeficiency virus 1, H9, 20.0 μg/ml; for inhibition at 40 µg/mL: Human immunodeficiency virus 1, H9, 40.0 μg/ml; for inhibition at 80 µg/mL: Human immunodeficiency virus 1, H9, 80.0 μg/ml
Protocol: as §1, §2, §3

HIV-1RTMF = test: HIV-1 replication in H9 cells, p24 antigen assay; format: cell-based; settings: for inhibition at 1.25 µg/mL / inhibition at 2.5 µg/mL / inhibition at 5 µg/mL / inhibition at 10 µg/mL / inhibition at 20 µg/mL / inhibition at 40 µg/mL / inhibition at 80 µg/mL: Human immunodeficiency virus 1, H9; for IC50: Human immunodeficiency virus 1, H9, 192 h, read-out: IC50, HIV-1 replication
Protocol: as §1, §2, §3

HTLV-IIIB = test: HIV-1 replication in H9 cells, p24 antigen assay; format: cell-based; settings: for IC50: Human immunodeficiency virus 1, 192 h, H9 cells, 8 days; for inhibition at 1.25 µg/mL: Human immunodeficiency virus 1, H9, 1.25 μg/ml; for inhibition at 2.5 µg/mL: Human immunodeficiency virus 1, H9, 2.5 μg/ml; for inhibition at 5 µg/mL: Human immunodeficiency virus 1, H9, 5.0 μg/ml; for inhibition at 10 µg/mL: Human immunodeficiency virus 1, H9, 10.0 μg/ml; for inhibition at 20 µg/mL: Human immunodeficiency virus 1, H9, 20.0 μg/ml; for inhibition at 40 µg/mL: Human immunodeficiency virus 1, H9, 40.0 μg/ml; for inhibition at 80 µg/mL: Human immunodeficiency virus 1, H9, 80.0 μg/ml
Protocol: as §1, §2, §3

H9 cells = test: MTT cytotoxicity assay; format: cell-based, human; settings: 4 days
Protocol: The cytotoxicity of M522 and M532 drugs against H9 cells was analyzed using MTT [3-(4,5-dimethylthiazol-2-yl)-2,5-diphenyltetrazolium bromide] assay (Sigma Chemical Co.) (Uckun et al., 1998). Briefly, exponentially growing H9 cells were seeded onto 96-well plates at a density of 3×10^4 cells/well and incubated for 24 h at 37° C. prior to drug exposure. On the day of treatment, a series Of M522 and M532 concentrations (1.25, 2.5, 5, 10, 20, 40, 80, and 160 μg/ ml) were used to test their cytotoxicity in H9 cells. Quadruplicate wells were used for each treatment. The cells were incubated with M522 and M532 for 4 days at 37° C. in a humidified 5% CO2 atmosphere. To each well, 50 μl of MTT (1 mg/ml final concentration) was added and the plates were incubated at 37° C. for 4 h to allow MTT to form formazan crystals by reacting with metabolically active cells. The formazan crystals were solubilized with DMSO. The absorbance of each well was measured in a microtiter reader at optical density 540 nm. The reaction is specific, no significant amounts of formazan can be detected with dead cells.

SMILES | IC50 [1] | inhibition at 1.25 µg/mL (HIV-1IIIBA17 variant) [%] | inhibition at 2.5 µg/mL (HIV-1IIIBA17 variant) [%] | inhibition at 5 µg/mL (HIV-1IIIBA17 variant) [%] | inhibition at 10 µg/mL (HIV-1IIIBA17 variant) [%] | inhibition at 20 µg/mL (HIV-1IIIBA17 variant) [%] | inhibition at 40 µg/mL (HIV-1IIIBA17 variant) [%] | inhibition at 80 µg/mL (HIV-1IIIBA17 variant) [%] | IC50 (HIV-1IIIBA17 variant) [µg/mL] | IC50 (HTLV-IIIMN) [µg/mL] | inhibition at 1.25 µg/mL (HTLV-IIIMN) [%] | inhibition at 2.5 µg/mL (HTLV-IIIMN) [%] | inhibition at 5 µg/mL (HTLV-IIIMN) [%] | inhibition at 10 µg/mL (HTLV-IIIMN) [%] | inhibition at 20 µg/mL (HTLV-IIIMN) [%] | inhibition at 40 µg/mL (HTLV-IIIMN) [%] | inhibition at 80 µg/mL (HTLV-IIIMN) [%] | inhibition at 1.25 µg/mL (HIV-1RTMF) [%] | inhibition at 2.5 µg/mL (HIV-1RTMF) [%] | inhibition at 5 µg/mL (HIV-1RTMF) [%] | further results
O=C(/C=C/c1ccc(O)c2c1[C@H](C(=O)O[C@H](Cc1ccc(O)c(O)c1)C(=O)O)[C@@H](c1ccc(O)c(O)c1)O2)O[C@H](Cc1ccc(O)c(O)c1)C(=O)O [M532, 4-{2-[1-carboxy-2-(3,4-dihydroxy-phenyl)-ethoxycarbonyl]-vinyl}-2-(3,4-dihydroxy-phenyl)-7-hydroxy-2,3-dihydro-benzofuran-3-carboxylic acid 1-carboxy-2-(3,4-dihydroxy-phenyl)-ethyl ester] | 1 µg/mL and 1.39 µM | 2 | 21.8 | 50 | 53.6 | 97.5 | 97.7 | 98.4 | 5 (≈ 6.96 µM) | 5.5 (≈ 7.65 µM) | 8.3 | 45.7 | 47 | 57.2 | 87 | 90 | 94.1 | 20.8 | 38.7 | 44.2 | IC50 (HIV-1 integrase; IC50, inhibition of HIV-1 integrase 3' processing activity): 487 nM and 450 nM; inhibition at 10 µg/mL (HIV-1RTMF): 73.6%; inhibition at 20 µg/mL (HIV-1RTMF): 90.4%; inhibition at 40 µg/mL (HIV-1RTMF): 95%; inhibition at 80 µg/mL (HIV-1RTMF): 98.3%; IC50 (HIV-1RTMF): 5.6 µg/mL (≈ 7.79 µM); IC50 (HTLV-IIIB): 11 µg/mL (≈ 15.3 µM); inhibition at 1.25 µg/mL (HTLV-IIIB): 4.7%; inhibition at 2.5 µg/mL (HTLV-IIIB): 16.1%; inhibition at 5 µg/mL (HTLV-IIIB): 20.1%; inhibition at 10 µg/mL (HTLV-IIIB): 34.5%; inhibition at 20 µg/mL (HTLV-IIIB): 90.8%; inhibition at 40 µg/mL (HTLV-IIIB): 96.2%; inhibition at 80 µg/mL (HTLV-IIIB): 96.8%; CC100; cells remained viable at highest concentration tested (H9 cells): > 223 µM
O=C(/C=C/c1ccc(O)c2c1[C@H](C(=O)O)[C@@H](c1ccc(O)c(O)c1)O2)O[C@H](Cc1ccc(O)c(O)c1)C(=O)O [M522, 4-{2-[1-carboxy-2-(3,4-dihydroxy-phenyl)-ethoxycarbonyl]-vinyl}-2-(3,4-dihydroxy-phenyl)-7-hydroxy-2,3-dihydro-benzofuran-3-carboxylic acid] | 1.5 µg/mL and 2.7 µM | 51.2 | 53.6 | 76.8 | 85 | 90.2 | 100 | 100 | 1.5 (≈ 2.79 µM) | 9 (≈ 16.7 µM) | 7.7 | 21.8 | 30 | 51.9 | 72.1 | 77.3 | 88.4 | 26.2 | 47.7 | 78.6 | IC50 (HIV-1 integrase; read-out: IC50, inhibition of HIV-1 integrase 3' processing activity (converted)): 836 nM and 830 nM; inhibition at 10 µg/mL (HIV-1RTMF): 83.4%; inhibition at 20 µg/mL (HIV-1RTMF): 95.5%; inhibition at 40 µg/mL (HIV-1RTMF): 98.2%; inhibition at 80 µg/mL (HIV-1RTMF): 100%; IC50 (HIV-1RTMF): 2.7 µg/mL (≈ 5.01 µM); IC50 (HTLV-IIIB): 11 µg/mL (≈ 20.4 µM); inhibition at 1.25 µg/mL (HTLV-IIIB): 31.4%; inhibition at 2.5 µg/mL (HTLV-IIIB): 42.1%; inhibition at 5 µg/mL (HTLV-IIIB): 45.9%; inhibition at 10 µg/mL (HTLV-IIIB): 47.3%; inhibition at 20 µg/mL (HTLV-IIIB): 62%; inhibition at 40 µg/mL (HTLV-IIIB): 82.4%; inhibition at 80 µg/mL (HTLV-IIIB): 94.5%; CC100; cells remained viable at highest concentration tested (H9 cells): > 297 µM
